Here are results for three compounds from PMC5526996, “Structural basis for dolichylphosphate mannose biosynthesis” (Nature Communications, 2017).

The target in assay [1] is T1, PfDPMS (Pyrococcus furiosus, UniProt Q8U4M3).
T1 construct: gene PF0058; E. coli C41(DE3) membranes, DDM or LDAO solubilised, mainly monomer
T1 sequence (Q8U4M3 1-352): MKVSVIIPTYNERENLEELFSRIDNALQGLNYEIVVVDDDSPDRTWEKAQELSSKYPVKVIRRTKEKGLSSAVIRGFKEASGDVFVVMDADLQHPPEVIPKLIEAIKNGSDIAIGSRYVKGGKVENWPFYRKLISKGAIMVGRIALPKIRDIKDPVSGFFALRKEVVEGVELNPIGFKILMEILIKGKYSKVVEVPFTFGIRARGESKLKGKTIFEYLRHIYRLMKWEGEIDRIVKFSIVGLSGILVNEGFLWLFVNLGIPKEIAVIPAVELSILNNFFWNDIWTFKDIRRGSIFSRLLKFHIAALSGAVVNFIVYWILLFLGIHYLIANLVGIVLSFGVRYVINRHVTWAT
Nature of the assay: thermal shift, heat precipitation with SDS-PAGE densitometry. In kind it is binding. Conditions: detergent-solubilised; compared with no Dol-P.

Assay [2] addresses T1, PfDPMS. Nature of the assay: phosphate-coupled glycosyltransferase assay (malachite green). Format: biochemical. Particulars: 0.23 mM donor, Dol-P acceptor, 75 °C, pH 7.5.
For assay [3], the target named is T1, PfDPMS. Nature of the assay: X-ray crystallography. Format: binding. Particulars: formed in reaction mixture at 60 °C; GDP bound, metal departed.

As usually defined, the ΔTm is the change in melting temperature against a reference sample. For `CC(C)=CCC/C(C)=C/CC/C(C)=C/CC/C(C)=C\CC/C(C)=C\CC/C(C)=C\CC/C(C)=C\CC/C(C)=C\CC/C(C)=C\CC/C(C)=C\CC[C@H](C)CCOP(=O)(O)O` [Dol55-P], on PfDPMS [1], the ΔTm was determined as 13.3 °C.
Take `Nc1nc2c(ncn2[C@@H]2O[C@H](COP(=O)(O)OP(=O)(O)O[C@H]3O[C@H](CO)[C@@H](O)[C@H](O)[C@H]3O)[C@@H](O)[C@H]2O)c(=O)[nH]1` [GDP-Glc]: on PfDPMS [2], the “phosphate-coupled glycosyltransferase assay (malachite green)” value was “four-fold higher product formation with GDP-Man compared with GDP-Glc”.
Regarding `CC(C)=CCC/C(C)=C/CC/C(C)=C/CC/C(C)=C\CC/C(C)=C\CC/C(C)=C\CC/C(C)=C\CC/C(C)=C\CC/C(C)=C\CC/C(C)=C\CC[C@H](C)CCOP(=O)(O)O[C@@H]1O[C@H](CO)[C@@H](O)[C@H](O)[C@@H]1O` [Dol55-P-Man], the X-ray crystallography on PfDPMS [3] was 5MM1 (PfDPMS•GDP•Dol55-P-Man).
